Target: T1, binding of KRAS^G12C to SOS1 (Homo sapiens, UniProt Q07889)
T1 construct: Tag1 (unspecified)
T1 sequence (Q07889 1-1333): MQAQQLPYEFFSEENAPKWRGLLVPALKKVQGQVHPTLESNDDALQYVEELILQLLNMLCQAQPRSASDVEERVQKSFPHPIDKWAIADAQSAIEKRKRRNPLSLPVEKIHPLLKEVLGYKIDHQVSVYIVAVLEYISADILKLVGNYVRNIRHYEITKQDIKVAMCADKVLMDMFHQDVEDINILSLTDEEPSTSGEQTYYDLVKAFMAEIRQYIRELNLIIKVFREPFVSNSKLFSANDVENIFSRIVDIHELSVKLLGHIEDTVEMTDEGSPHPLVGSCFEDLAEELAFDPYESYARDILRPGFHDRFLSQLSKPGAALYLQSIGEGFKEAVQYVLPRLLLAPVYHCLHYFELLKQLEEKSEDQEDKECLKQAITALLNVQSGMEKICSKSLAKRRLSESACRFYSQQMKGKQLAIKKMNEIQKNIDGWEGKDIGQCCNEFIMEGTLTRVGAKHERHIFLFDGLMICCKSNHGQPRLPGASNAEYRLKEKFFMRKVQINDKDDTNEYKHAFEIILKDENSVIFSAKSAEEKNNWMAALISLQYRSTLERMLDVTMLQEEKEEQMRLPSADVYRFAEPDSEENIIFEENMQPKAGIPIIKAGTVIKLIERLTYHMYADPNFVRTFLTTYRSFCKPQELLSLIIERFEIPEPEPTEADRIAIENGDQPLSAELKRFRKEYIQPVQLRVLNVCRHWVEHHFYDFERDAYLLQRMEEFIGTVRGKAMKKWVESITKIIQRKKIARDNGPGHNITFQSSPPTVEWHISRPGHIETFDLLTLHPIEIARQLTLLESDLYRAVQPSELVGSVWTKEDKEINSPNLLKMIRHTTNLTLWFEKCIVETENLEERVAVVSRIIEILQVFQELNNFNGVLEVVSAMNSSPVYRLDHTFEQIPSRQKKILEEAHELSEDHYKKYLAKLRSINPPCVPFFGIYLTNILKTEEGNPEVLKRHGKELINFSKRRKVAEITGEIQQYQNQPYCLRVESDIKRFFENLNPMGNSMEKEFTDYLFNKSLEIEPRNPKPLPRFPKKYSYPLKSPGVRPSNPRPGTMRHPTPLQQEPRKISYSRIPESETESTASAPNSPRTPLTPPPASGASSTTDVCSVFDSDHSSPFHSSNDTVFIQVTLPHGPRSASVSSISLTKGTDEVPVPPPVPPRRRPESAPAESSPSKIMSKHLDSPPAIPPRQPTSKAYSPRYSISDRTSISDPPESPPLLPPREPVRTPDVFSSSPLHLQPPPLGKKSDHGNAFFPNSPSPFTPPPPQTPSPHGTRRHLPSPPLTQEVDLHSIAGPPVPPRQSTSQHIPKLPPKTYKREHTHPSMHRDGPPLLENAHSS
Assay: Inhibition of the binding of KRAS^G12C to SOS1
Conditions: Tag1-SOS1 / Tag2-KRAS^G12C, 2 h incubation at room temperature; read-out: IC50 (nM), inhibitory activity on the binding of KRAS^G12C to SOS1
Method: • (1) Gradient dilution of the test compounds: 10 mM mother solution (dissolved in 100% DMSO) was added to a 384-well test plate, the final content of DMSO being 0.25%.
(2) 5 μL of Tag1-SOS1 solution was added to the test plate, and 5 μL of dilution buffer was added to the control group.
(3) 5 μL of Tag2-KRAS^G12C solution was added to the test plate.
(4) 10 μL of Anti-Tag1-Tb3+ and Anti-Tag2-XL665 detection solution were added to the test plate. The plate was centrifuged at 1000 rpm for 1 min and incubated at room temperature for 2 h.
(6) The IC50 values for the compounds were finally calculated using GraphPad Prism software, and a curve was fit and plotted.
The inhibitory activity of the compounds of the examples of the present invention on the binding of KRAS^G12C enzyme to SOS1 is shown in Table 1.

SMILES	IC50 [nM]
COc1cc2nc(C)nc(N[C@H](C)c3cccc(C(F)(F)F)c3F)c2cc1OC[C@@H]1CCCN1S(C)(=O)=O [Example 20, N—((R)-1-(2-fluoro-3-(trifluoromethyl)phenyl)ethyl)-7-methoxy-2-methyl-6-(((S)-1-(methylsulfonyl)pyrrolidin-2-yl)methoxy)quinazolin-4-amine]	121
COc1cc2nc(C)nc(N[C@H](C)c3cc(N)cc(C(F)(F)F)c3)c2cc1OCCN(C)CC1(F)CC1 [Example 21, (R)—N-(1-(3-amino-5-(trifluoromethyl)phenyl)ethyl)-6-(2-(((1-fluorocyclopropyl)methyl)(methyl)amino)ethoxy)-7-methoxy-2-methylquinazolin-4-amine]	4.7
COc1cc2nc(C)nc(N[C@H](C)c3cc(N)cc(C(F)(F)F)c3)c2cc1OCCN(C)CC1CC(F)(F)C1 [Example 22, (R)—N-(1-(3-amino-5-(trifluoromethyl)phenyl)ethyl)-6-(2-(((3,3-difluorocyclobutyl)methyl)(methyl)amino)ethoxy)-7-methoxy-2-methylquinazolin-4-amine]	7
COc1cc2nc(C)nc(N[C@H](C)c3cccc(C(F)(F)C(C)(C)O)c3F)c2cc1OC[C@H]1CNCCO1 [Example 23]	7.9
COc1cc2nc(C)nc(N[C@H](C)c3cccc(C(F)(F)C(C)(C)O)c3F)c2cc1OC[C@@H]1CNCCO1 [Example 24]	7.7
COc1cc2nc(C)nc(N[C@H](C)c3cccc(C(F)(F)C(C)(C)O)c3F)c2cc1OC[C@@H]1CN(C)CCO1 [Example 25]	3.9
COc1cc2nc(C)nc(N[C@H](C)c3cccc(C(F)(F)C(C)(C)O)c3F)c2cc1OC[C@@H]1COCCO1 [Example 26, 1-(3-((R)-1-((6-(((S)-1,4-Dioxan-2-yl)methoxy)-7-methoxy-2-methylquinazolin-4-yl)amino)ethyl)-2-fluorophenyl)-1,1-difluoro-2-methylpropan-2-ol]	9.2
COc1cc2nc(C)nc(N[C@H](C)c3cccc(C(F)(F)C(C)(C)O)c3F)c2cc1OC[C@H]1COCCO1 [Example 27, 1-(3-((R)-1-((6-(((R)-1,4-Dioxan-2-yl)methoxy)-7-methoxy-2-methylquinazolin-4-yl)amino)ethyl)-2-fluorophenyl)-1,1-difluoro-2-methylpropan-2-ol]	8.5
COc1cc2nc(C)nc(N[C@H](C)c3cc(N)cc(C(F)(F)F)c3)c2cc1OC[C@@H]1COCCO1 [Example 28, 6-(((S)-1,4-Dioxan-2-yl)methoxy)-N—((R)-1-(3-amino-5-(trifluoromethyl)phenyl)ethyl)-7-m ethoxy-2-methylquinazolin-4-amine]	7.9
COc1cc2nc(C)nc(N[C@H](C)c3cccc(C(F)(F)C(C)(C)O)c3F)c2cc1OC[C@@H]1CN(S(C)(=O)=O)CCO1 [Example 29]	4.7
COc1cc2nc(C)nc(N[C@H](C)c3cc(N)cc(C(F)(F)F)c3)c2cc1OC[C@@H]1CCCN1S(C)(=O)=O [Example 32, N—((R)-1-(3-amino-5-(trifluoromethyl)phenyl)ethyl)-7-methoxy-2-methyl-6-(((S)-1-(methylsulfonyl)pyrrolidin-2-yl)methoxy)quinazolin-4-amine]	31
COc1cc2nc(C)nc(N[C@H](C)c3cccc(C(F)(F)C(C)(C)O)c3F)c2cc1OCCN(C)S(C)(=O)=O [Example 33, (R)—N-(2-((4-((1-(3-(1,1-Difluoro-2-hydroxy-2-methylpropyl)-2-fluorophenyl)ethyl)amino)-7-methoxy-2-methylquinazolin-6-yl)oxy)ethyl)-N-methylmethanesulfonamide]	7.5
COc1cc2nc(C)nc(N[C@H](C)c3cc(N)cc(C(F)(F)F)c3)c2cc1OCC1(N(C)C)CC1 [Example 34, (R)—N-(1-(3-Amino-5-(trifluoromethyl)phenyl)ethyl)-6-((1-(dimethylamino)cyclopropyl)methoxy)-7-methoxy-2-methylquinazolin-4-amine]	5.4

— patent US20240336606A1 (Suzhou Zelgen Biopharmaceuticals Co., Ltd., priority 2020, published 2024)
